The source made the active and inactive calls. The calls are words filed in the database; no cut-off is given here.
Legend:
[1] = molecular target: Alpha-synuclein (Homo sapiens) (UniProt P37840); experiment: Binding affinity to human alpha-Synuclein at compound to protein molar ratio of 5:1 incubated for 3 hrs by mass spectroscopy analysis
[2] = molecular target: Alpha-synuclein (Homo sapiens) (UniProt P37840); experiment: Inhibition of human alpha-Synuclein aggregation at compound:protein ratio of 1:5 incubated for 72 hrs under shaking condition by Thioflavin T based fluorimeter assay relative to control; conditions: concentration not given here
[3] = molecular target: Alpha-synuclein (Homo sapiens) (UniProt P37840); experiment: Inhibition of human alpha-Synuclein aggregation at 400 uM incubated for 72 hrs under shaking condition by Thioflavin T based fluorimeter assay relative to control

| Compound | Activity [1] | inhibition [2] | inhibition [3] |
| --- | --- | --- | --- |
| O=C(O[C@@H]1Cc2c(O)cc(O)cc2O[C@@H]1c1cc(O)c(O)c(O)c1)c1cc(O)c(O)c(O)c1 | Active | 93.6% | – |
| CC(CCC[C@@H](C)[C@H]1[C@H](O)[C@@H](O)[C@@H]2[C@]1(C)CC[C@@H]1[C@@]3(C)CC[C@@H](O)C[C@@H]3C[C@@H](O)[C@]12O)COS(=O)(=O)O (some centres undefined) | Active | – | 46.2% |

From ChEMBL document CHEMBL5226351, “Sycosterol A, an α-Synuclein Inhibitory Sterol from the Australian Ascidian Sycozoa cerebriformis” (J Nat Prod, 2021)
